Measured values as given in US20060276407A1, “Methods of treating hepatitis C virus” (Schering Corporation, priority 2005, published 2006).
Like-named read-outs stand apart in the source and are kept apart here.

Assay: Phase 1 rising-single-dose pharmacokinetic study in healthy adult subjects (Example 1)
Assay type: in vivo, human
Details: for half-life / AUC / Tmax / Cmax / Vd/F: human; for AUC: po; for DN AUC(l) / DN AUC(tf) / DN Cmax: dose-normalized (to 50 mg)
Procedure: A Phase 1, randomized, third-party-blind (within dose level), placebo-controlled, rising-single-dose study of compounds of Formulae I-XXVI was conducted in healthy adult subjects.
Nine subjects in each group received either compound of Formula Ia (n=6) or placebo (n=3). Those subjects randomized to active compound received one of the following doses of compound of Formula Ia: 50, 100, 200, 400, 600, or 800 mg.
On Day 1, at least 10 hours prior to compound administration, an overnight fast was maintained until 4 hours following treatment administration, after which lunch was served. During the fasting period, no food or fluid (except noncarbonated water) was permitted; furthermore, drinking water was prohibited from 2 hours predose to 2 hours postdose, with the exception of the approximately 240 mL administered with the treatments.
Blood samples (7 mL each) for the determination of compound of Formula Ia concentrations were collected immediately prior to dosing (0 hour), and at 0.25, 0.5, 0.75, 1, 1.5, 2, 3, 4, 5, 6, 8, 10, 12, 18, 24, 36, 48, 72, and 144 hours postdose. The blood samples were collected into tubes containing EDTA. The samples were separated by centrifugation at 4° C. for 15 minutes at 1500 g to obtain the plasma, and the plasma samples frozen at −20° C. until assayed.
Plasma concentrations of compound of Formula Ia were determined using a validated liquid chromatography tandem mass spectrometry (LC-MS/MS) method. The assay lower limit of quantitation (LLOQ) was 0.50 ng/mL, and the method was validated over the concentration range of 0.50 to 1000 ng/mL.
The mean and percent coefficients of variation (% CV) were calculated for the plasma concentrations of compound of Formula Ia at each time point. Concentration values less than the assay LLOQ were reported as and set to zero in the calculations and tables. The plasma concentration-time data for compound of Formula Ia were subjected to pharmacokinetic analysis by noncompartmental methods using WinNonlin software. Nominal sampling times were used for pharmacokinetic analysis.
For each subject, the following compound of Formula Ia pharmacokinetic parameters were determined: • Cmax Maximum observed plasma concentration • Tmax Time of maximum observed plasma concentration • tf Time of final quantifiable sample • AUC(tf) Area under the plasma concentration-time curve from time 0 to tf • AUC(l) Area under the plasma concentration-time curve from time 0 to infinity [AUC(l)=[…]+C(tf)estimated/k, where k and C(tf)estimated are terminal elimination rate constant and estimated concentration at final quantifiable sample, respectively] • t½ Terminal-phase half-life (t½=ln 2/k) • CL/F Apparent total body clearance (CL/F=Dose/AUC[l]) • Vd/F Apparent volume of distribution (Vd/F=CL/F*(t1/2/0.693))
Dose-adjusted (to 50 mg) Cmax, AUC(l), and AUC(tf) values were also calculated. Cmax, Tmax, and if were the observed values. The terminal phase rate constant (k) was calculated as the negative of the slope of the log-linear terminal portion of the plasma concentration-time curve using linear regression (at least three time points). The number of points needed to determine the terminal phase rate constant was selected by WinNonlin software.
Summary statistics, including means, standard deviations, and coefficients of variation (CV) expressed as a percent, were computed for the single-dose plasma compound of Formula Ia concentration data at each sampling time point and for the derived pharmacokinetic parameters for each dose level using a standard program based on SAS/STAT (Release 6.12; SAS Institute Inc., North Carolina).
The log-transformed dose-adjusted (to 50 mg) Cmax and AUC values of compound of Formula Ia were statistically analyzed using an analysis of variance (ANOVA) model. The effect due to treatment (dose) was extracted. Ninety-five percent confidence intervals (CIs) for the means at each dose level, based on the nontransformed data, were provided. […]

[1] = plasma, single oral dose 50 mg, mean, n = 6
[2] = plasma, single oral dose 100 mg, mean, n = 6
[3] = plasma, single oral dose 200 mg, mean, n = 6
[4] = plasma, single oral dose 400 mg, mean, n = 6
[5] = plasma, single oral dose 600 mg, mean, n = 6
[6] = plasma, single oral dose 800 mg, mean, n = 6
[7] = single oral dose 50 mg, mean, n = 6
[8] = single oral dose 100 mg, mean, n = 6
[9] = single oral dose 200 mg, mean, n = 6
[10] = single oral dose 400 mg, mean, n = 6
[11] = single oral dose 600 mg, mean, n = 6
[12] = single oral dose 800 mg, mean, n = 6

## CC(C)(C)NC(=O)N[C@H](C(=O)N1C[C@H]2[C@@H]([C@H]1C(=O)NC(CC1CCC1)C(=O)C(N)=O)C2(C)C)C(C)(C)C (mixture of isomers) [Formula Ia, (1 R, 5S)-N-[3-Amino-1-(Cyclobutylmethyl)-2,3-Dioxopropyl]-3-[2(S)-[[[(1,1-Dimethylethyl)Amino]Carbonyl]Amino]-3,3-Dimethyl-1-Oxobutyl]-6,6-Dimethyl-3-Azabicyclo[3.1.0]Hexan-2(S)-Carboxamide]
plasma, oral, 100-800 mg dose cohorts, read-out: mean terminal phase half-life (t½)
  half-life: 7 to 15 h
plasma, 50 mg, single oral dose 50 mg, mean, n = 6, read-out: AUC(l)
  AUC: 181 ng·h/mL
plasma, 50 mg, single oral dose 50 mg, mean, n = 6, read-out: AUC(tf)
  AUC: 179 ng·h/mL
plasma, 100 mg, single oral dose 100 mg, mean, n = 6, read-out: AUC(l)
  AUC: 345 ng·h/mL
plasma, 100 mg, single oral dose 100 mg, mean, n = 6, read-out: AUC(tf)
  AUC: 337 ng·h/mL
plasma, 200 mg, single oral dose 200 mg, mean, n = 6, read-out: AUC(l)
  AUC: 846 ng·h/mL
plasma, 200 mg, single oral dose 200 mg, mean, n = 6, read-out: AUC(tf)
  AUC: 831 ng·h/mL
plasma, 400 mg, single oral dose 400 mg, mean, n = 6, read-out: AUC(l)
  AUC: 1560 ng·h/mL
plasma, 400 mg, single oral dose 400 mg, mean, n = 6, read-out: AUC(tf)
  AUC: 1530 ng·h/mL
plasma, 600 mg, single oral dose 600 mg, mean, n = 6, read-out: AUC(l)
  AUC: 2160 ng·h/mL
plasma, 600 mg, single oral dose 600 mg, mean, n = 6, read-out: AUC(tf)
  AUC: 2140 ng·h/mL
plasma, 800 mg, single oral dose 800 mg, mean, n = 6, read-out: AUC(l)
  AUC: 2320 ng·h/mL
plasma, 800 mg, single oral dose 800 mg, mean, n = 6, read-out: AUC(tf)
  AUC: 2300 ng·h/mL
plasma, across single oral doses 50-800 mg, read-out: median Tmax
  Tmax: 1 to 2.25 h
[1]
  Cmax: 58.7 ng/mL
  Vd/F: 1070 L
plasma, single oral dose 50 mg, median, n = 6, read-out: Tmax
  Tmax: 1.5 h
[2]
  Cmax: 111 ng/mL
  Vd/F: 2680 L
plasma, single oral dose 100 mg, mean, n = 6, read-out: t½ (converted)
  half-life: 6.84 h
plasma, single oral dose 100 mg, median, n = 6, read-out: Tmax
  Tmax: 2 h
[3]
  Cmax: 281 ng/mL
  Vd/F: 3840 L
plasma, single oral dose 200 mg, mean, n = 6, read-out: t½ (converted)
  half-life: 10.8 h
plasma, single oral dose 200 mg, median, n = 6, read-out: Tmax
  Tmax: 1 h
[4]
  Cmax: 445 ng/mL
  Vd/F: 5400 L
plasma, single oral dose 400 mg, mean, n = 6, read-out: t½ (converted)
  half-life: 15.4 h
plasma, single oral dose 400 mg, median, n = 6, read-out: Tmax
  Tmax: 1.75 h
[5]
  Cmax: 528 ng/mL
  Vd/F: 4110 L
plasma, single oral dose 600 mg, mean, n = 6, read-out: t½ (converted)
  half-life: 10.2 h
plasma, single oral dose 600 mg, median, n = 6, read-out: Tmax
  Tmax: 2.25 h
[6]
  Cmax: 616 ng/mL
  Vd/F: 5450 L
plasma, single oral dose 800 mg, mean, n = 6, read-out: t½ (converted)
  half-life: 10.1 h
plasma, single oral dose 800 mg, median, n = 6, read-out: Tmax
  Tmax: 1.25 h
Single oral dose 50 mg, mean, n = 6, value could not be well characterized because of low plasma concentrations in the terminal phase, read-out: t½ (converted)
  half-life: 2.69 h
Single oral dose 50 mg, mean
  DN AUC(l): 181 ng·h/mL
  DN AUC(tf): 179 ng·h/mL
  DN Cmax: 58.7 ng/mL
[7]
  CL/F: 277 L/h
  tf (time of final quantifiable sample): 15.3 h
Single oral dose 100 mg, mean
  DN AUC(l): 172 ng·h/mL
  DN AUC(tf): 169 ng·h/mL
  DN Cmax: 55.4 ng/mL
[8]
  CL/F: 315 L/h
  tf (time of final quantifiable sample): 26 h
Single oral dose 200 mg, mean
  DN AUC(l): 212 ng·h/mL
  DN AUC(tf): 208 ng·h/mL
  DN Cmax: 70.3 ng/mL
[9]
  CL/F: 254 L/h
  tf (time of final quantifiable sample): 40.0 h
Single oral dose 400 mg, mean
  DN AUC(l): 195 ng·h/mL
  DN AUC(tf): 191 ng·h/mL
  DN Cmax: 55.7 ng/mL
[10]
  CL/F: 279 L/h
  tf (time of final quantifiable sample): 52.0 h
Single oral dose 600 mg, mean
  DN AUC(l): 180 ng·h/mL
  DN AUC(tf): 178 ng·h/mL
  DN Cmax: 44.0 ng/mL
[11]
  CL/F: 288 L/h
  tf (time of final quantifiable sample): 52 h
Single oral dose 800 mg, mean
  DN AUC(l): 145 ng·h/mL
  DN AUC(tf): 144 ng·h/mL
  DN Cmax: 38.5 ng/mL
[12]
  CL/F: 399 L/h
  tf (time of final quantifiable sample): 56 h
